{
  "source": "patent US11980594B2",
  "about": "“Composition and method for treating a drug-resistant cancer” (NOVELWISE PHARMACEUTICAL CORPORATION, priority 2021, dated 2024)",
  "key": {"U87MG-R cells": {"test_system": "U87MG-R cells", "assay": "Flow cytometric analysis of the DNA cell cycle, U87MG-R", "type": "cell-based, human", "conditions": "10 μM BMX alone, 48 hrs", "experimental": "For the DNA cell cycle, following treatment with different doses of BMX (0-10 μM) in the presence or absence of TMZ (50 μM) for 48 hrs, the cells were harvested through trypsinization, washed twice with phosphate-buffered saline, and fixed in methanol. The cells were then washed again, subjected to RNase A at a final concentration of 0.05 mg/mL (Sigma-Aldrich; Merck Millipore, Darmstadt, Germany), and incubated with 10 μg/mL propidium iodide (PI; Sigma-Aldrich; Merck Millipore) at 4° C. for 15 min in the dark. Cell cycle analysis was conducted using a fluorescence-activated cell sorting (FACS) flow cytometer (Attune NxT flow cytometer, Thermo Fisher Scientific)."}, "HDAC8": {"molecular_target": "T1, HDAC8 (Homo sapiens, UniProt Q9BY41)", "T1 sequence (Q9BY41 1-377)": "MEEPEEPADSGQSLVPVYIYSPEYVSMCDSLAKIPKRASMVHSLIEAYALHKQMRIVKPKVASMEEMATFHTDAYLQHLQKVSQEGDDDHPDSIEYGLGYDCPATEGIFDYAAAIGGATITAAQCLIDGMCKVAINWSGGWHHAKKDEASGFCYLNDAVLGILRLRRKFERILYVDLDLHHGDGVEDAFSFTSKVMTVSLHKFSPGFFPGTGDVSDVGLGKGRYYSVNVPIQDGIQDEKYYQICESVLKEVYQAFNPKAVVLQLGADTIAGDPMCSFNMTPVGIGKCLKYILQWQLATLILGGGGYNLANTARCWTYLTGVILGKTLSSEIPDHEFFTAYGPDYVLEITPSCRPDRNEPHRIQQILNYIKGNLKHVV", "conditions": "statement from literature [22]; cited from earlier work"}, "RKO cells": {"test_system": "RKO cells", "assay": "Annexin V/PI flow cytometric analysis of apoptosis, RKO", "type": "cell-based, human", "conditions": "BMX, 48 hrs", "experimental": "Apoptosis induction in different doses of BMX (0-10 μM) in the presence or absence of TMZ (50 μM) was assayed by the detection of membrane externalization of phosphatidylserine with the with the CF®488A Annexin V and PI Apoptosis Kit (Fremont, Calif., USA) following the manufacturer's instructions. All samples were then immediately analyzed by flow cytometry."}, "[1]": {"conditions": "statement from literature [22]; cited from earlier work"}},
  "data": [
    {"smiles": "COc1ccc(COc2c(/C=C/C(=O)NO)ccc(OC)c2CC=C(C)C)cc1", "note": "[BMX, (E)-2-(4-Methoxybenzyloxy)-3-prenyl-4-methoxy-N-hydroxycinamide]", "values": [
      {"measurement": "cells arrested in G0/G1 phase", "setting": "U87MG-R cells", "result": 77.95, "unit": "%"},
      {"measurement": "HDAC isoform selectivity", "setting": "HDAC8", "result": "isoform-selective HDAC8 inhibitor"},
      {"measurement": "early apoptotic cells", "setting": "RKO cells", "result": "≤ 59.18", "unit": "%"},
      {"measurement": "toxicity", "setting": "[1]", "result": "lowest toxicity"}
    ]}
  ]
}
